Reference: patent US7071169B2, “Pyrane derivatives as both ACE-and NEP-inhibitors” (Novartis AG, priority 2001, dated 2006)
pIC50: −log10 of the molar value. Each block holds one compound with its values, some of them ahead of it. Bridges are numbered along the chain shown (N, C = ends). Where no end group is shown, it is not given here.

How the values were obtained:
[1] = test system: angiotensin I induced pressor response; assay: inhibition of the angiotensin I induced pressor response in normotensive rats; format: in vivo, rat; details: 10 mg/kg p.o., for 4 hours
Description: The in vivo test for i.v. administered compounds is performed with male, normotensive rats, which are anesthetized with sodium metofan. A femoral artery and femoral vein are cannulated respectively for direct blood pressure measurement on i.v. administration of angiotensin I and i.v. or p.o. administration of a compound of this invention. After the basal blood pressure is stabilized, pressor responses to 3 challenges of 300 ng/kg angiotensin I i.v., at 15 minute intervals, are obtained. Such pressure responses are usually again obtained at 15, 30, 60 and 90 minutes, and then every hour up to 6 hours after i.v. or p.o. administration of the compound to be tested, and compared with the initial responses. Any observed decrease of said pressor response is an indication of ACE inhibition.

[2] = test system: spontaneously hypertensive rat (SHR); assay: antihypertensive activity in conscious spontaneously hypertensive rat (SHR); format: in vivo; details: 11.6 mg/kg p.o.
Description: The antihypertensive activity can be determined, e.g., in the spontaneously hypertensive rat (SHR) and the desoxy-corticosterone acetate (DOCA)-salt hypertensive rat, e.g., according to Trapani et al., J. Cardiovasc. Pharmacol., Vol. 14, pp. 419–424 (1989).

[3] = biological target: ACE (Homo sapiens, UniProt P12821); assay: in vitro inhibition of ACE (hippuryl-histidyl-leucine hydrolysis); format: biochemical; details: ACE in vitro assay
Description: (§1) In vitro testing is most appropriate for the free carboxylic acids of the invention. The test compound is dissolved in dimethyl sulfoxide, ethanol, or 0.25M sodium bicarbonate solution, and the solution is diluted with buffer to the desired concentration.
The buffer for the ACE assay is 300 mM NaCl, 100 mM KH2PO4 (pH 8.3). The reaction is initiated by the addition of 100 μL of hippuryl-histidyl-leucine (2 mg/mL) to tubes containing enzyme and drug in a volume of 150 μL and tubes are incubated for 30 minutes at 37° C. The reaction is terminated by the addition of 0.75 mL 0.6N NaOH. 100 μL of freshly prepared o-phthalaldehyde solution (2 mg/mL in methanol) is added to the tubes, the contents are mixed and allowed to stand at room temperature. After 10 minutes, 100 μL of 6N HCl is added. The tubes are centrifuged and the supernatant optical density is read at 360 nm. The results are plotted against drug concentration to determine the IC50, i.e., the drug concentration which gives half the activity of the control sample containing no drug.

[4] = biological target: T1, NEP (EC 3.4.24.11) (Rattus norvegicus, UniProt P07861); assay: in vitro inhibition of NEP (hydrolysis of glutaryl-Ala-Ala-Phe-2-naphthylamide, GAAP assay); format: biochemical; details: rat kidney cortex membranes
T1 construct: rat kidney cortex membranes prepared by method of Maeda et al. (1983); from tissue; host or cells: rat kidney cortex membranes
T1 sequence (P07861 1-750): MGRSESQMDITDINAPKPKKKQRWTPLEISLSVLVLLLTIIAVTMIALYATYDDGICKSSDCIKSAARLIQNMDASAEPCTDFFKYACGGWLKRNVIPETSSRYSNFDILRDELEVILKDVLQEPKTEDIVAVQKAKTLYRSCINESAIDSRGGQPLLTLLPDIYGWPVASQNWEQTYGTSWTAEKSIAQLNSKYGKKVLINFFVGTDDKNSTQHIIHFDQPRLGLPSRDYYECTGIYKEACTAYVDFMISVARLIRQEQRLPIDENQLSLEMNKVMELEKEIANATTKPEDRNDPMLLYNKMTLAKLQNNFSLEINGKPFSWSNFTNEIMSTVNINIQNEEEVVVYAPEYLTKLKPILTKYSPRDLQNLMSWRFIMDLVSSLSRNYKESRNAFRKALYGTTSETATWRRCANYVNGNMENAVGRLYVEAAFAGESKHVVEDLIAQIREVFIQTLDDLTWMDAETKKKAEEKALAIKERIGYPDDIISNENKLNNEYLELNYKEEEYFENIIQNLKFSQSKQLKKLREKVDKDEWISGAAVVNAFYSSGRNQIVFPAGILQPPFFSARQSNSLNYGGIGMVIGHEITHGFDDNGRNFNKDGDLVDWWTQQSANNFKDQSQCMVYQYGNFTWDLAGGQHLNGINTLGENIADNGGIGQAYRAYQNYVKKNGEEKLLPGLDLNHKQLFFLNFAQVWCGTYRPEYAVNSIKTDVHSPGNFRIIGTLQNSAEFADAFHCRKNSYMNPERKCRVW
Description: as §1
The in vitro inhibition of NEP (EC 3.4.24.11) can be determined as follows:
NEP 3.4.24.11 activity is determined by the hydrolysis of the substrate glutaryl-Ala-Ala-Phe-2-naphthylamide […] using a modified procedure of Orlowski and Wilk (1981). The incubation mixture (total volume 125 μL) contains 4.2 μL of protein (rat kidney cortex membranes prepared by method of Maeda et al. (1983), 50 mM tris buffer, pH 7.4 at 25°0 C., 500 μM substrate (final concentration), and leucine aminopeptidase M (2.5 μg). The mixture is incubated for 10 minutes at 25° C., and 100 μL of fast garnet (250 μg fast garnet/mL of 10% Tween 20 in 1M sodium acetate pH 4.2) is added. Enzyme activity is measured spectrophotometrically at 540 nm. One unit of NEP 24.11 activity is defined as 1 nmol of 2-naphthylamine released per minute at 25° C. at pH 7.4. IC50 values are determined, i.e., the concentration of test compound required for 50% inhibition of the release of 2-naphthylamine.

[5] = biological target: rabbit antibodies that recognize specifically the carboxyl terminal tryptophan of ET-1; assay: RIA: displacement of [125I]ET-1 binding to anti-ET-1 antibodies; details: mean±SEM, n=3–5
Description: Diluted samples ([…]) obtained from the above enzyme assay are incubated at 4° C. overnight with 25 μL each of [^125I]ET-1 (10,000 cpm/tube) and 1:20,000-fold diluted rabbit antibodies that recognize specifically the carboxyl terminal tryptophan of ET-1. Goat anti-rabbit antibodies coupled to magnetic beads (70 μg) are then added to each tube, and the reaction mixture is further incubated for 30 minutes at room temperature. The beads are pelleted using a magnetic rack. The supernatant is decanted, and the radioactivity in the pellet is counted in a gamma counter. Total and non-specific binding are measured in the absence of non-radioactive ET-1 and anti-ET antibodies, respectively.

ACE, sequence (P12821 30-1306, species assumed): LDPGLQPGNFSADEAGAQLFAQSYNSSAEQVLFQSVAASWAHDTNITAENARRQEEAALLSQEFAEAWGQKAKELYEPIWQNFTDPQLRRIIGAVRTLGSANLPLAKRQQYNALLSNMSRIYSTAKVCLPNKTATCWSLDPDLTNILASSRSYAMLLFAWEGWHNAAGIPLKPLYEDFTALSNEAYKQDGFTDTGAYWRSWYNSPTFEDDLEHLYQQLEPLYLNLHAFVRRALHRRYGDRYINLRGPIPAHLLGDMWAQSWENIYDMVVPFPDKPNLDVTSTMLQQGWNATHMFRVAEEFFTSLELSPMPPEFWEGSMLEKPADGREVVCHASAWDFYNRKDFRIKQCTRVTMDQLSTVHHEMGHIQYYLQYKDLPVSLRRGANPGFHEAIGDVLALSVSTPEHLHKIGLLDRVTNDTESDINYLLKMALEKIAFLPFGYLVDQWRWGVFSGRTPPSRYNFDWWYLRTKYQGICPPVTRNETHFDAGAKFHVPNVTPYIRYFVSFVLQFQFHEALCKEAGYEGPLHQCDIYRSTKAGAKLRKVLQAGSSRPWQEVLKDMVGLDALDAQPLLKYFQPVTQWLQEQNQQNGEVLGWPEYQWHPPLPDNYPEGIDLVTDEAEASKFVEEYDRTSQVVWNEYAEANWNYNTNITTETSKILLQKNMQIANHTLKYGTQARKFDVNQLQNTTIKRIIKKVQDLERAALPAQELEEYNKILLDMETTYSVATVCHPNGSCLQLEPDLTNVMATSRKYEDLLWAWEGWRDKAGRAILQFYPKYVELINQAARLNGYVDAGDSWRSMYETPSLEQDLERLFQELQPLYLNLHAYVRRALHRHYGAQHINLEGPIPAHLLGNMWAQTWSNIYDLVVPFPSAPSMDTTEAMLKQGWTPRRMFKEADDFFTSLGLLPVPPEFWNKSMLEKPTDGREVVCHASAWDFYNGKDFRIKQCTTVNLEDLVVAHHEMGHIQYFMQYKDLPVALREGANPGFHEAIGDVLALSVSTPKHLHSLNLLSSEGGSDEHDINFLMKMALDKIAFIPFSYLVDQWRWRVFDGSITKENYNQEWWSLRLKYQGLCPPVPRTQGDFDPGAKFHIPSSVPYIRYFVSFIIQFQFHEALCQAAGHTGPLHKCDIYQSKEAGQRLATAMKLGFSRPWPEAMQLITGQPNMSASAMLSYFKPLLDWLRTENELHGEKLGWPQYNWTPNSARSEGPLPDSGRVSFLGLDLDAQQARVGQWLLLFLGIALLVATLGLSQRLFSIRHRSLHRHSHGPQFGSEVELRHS

Compound: CCOC(=O)[C@H](Cc1ccc(OC)cc1)NC(=O)C(C)(C)NC(=O)[C@@H](SC(C)=O)C1CCOCC1 [Example 1f, N-[2-[(S)-2-acetylthio-2-(4-tetrahydropyranyl)-acetylamino]-2-methylpropionyl]-(L)-4-methoxyphenylalanine ethyl ester]
inhibition of the angiotensin I induced pressor response [1]: 98%
reduction of mean arterial pressure [2]: about 16 mm Hg

pIC50 [3]: ~8.23
pIC50 [4]: ~8.32
Compound: COc1ccc(C[C@H](NC(=O)C(C)(C)NC(=O)[C@@H](S)C2CCOCC2)C(=O)O)cc1 [Example 2g, N-[2-[(S)-2-mercapto-2-(4-tetrahydropyranyl)-acetylamino]-2-methylpropionyl]-(L)-4-methoxyphenylalanine]

IC50 for displacement of [125I]ET-1 binding to the antibodies [5]: 21 ± 2 fmol
Compound: ET-1: non-radioactive ET-1, the peptide formed from big ET-1 by ECE and measured by RIA

IC50 for displacement of [125I]ET-1 binding to the antibodies [5]: 260,000±66,000 fmol
Compound: big ET-1: ECE substrate from which ET-1 is formed; added in the ECE-1 assay (CSCSSLMDKECVYFCHLDIIWVNTPEHVVPYGLGSPRS; disulfide 1-15, 3-11; ends not checked; UniProt P05305 53-90, looked up)
